Reference: PubChem BioAssay (NCI)
Values joined by “and” are separate entries in the source; they are usually repeats but may differ in a detail not shown here. Equal values may be shown once.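 Protocol summary: plate cells (96-well), add compound at 5 concentrations, incubate 48 h, interpolate endpoints linearly. GI50: concentration for 50% inhibition of growth. At the TGI there is no net growth.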

Key:
Test in all cases: NCI-60 cell line screen, 48 h
UO-31 renal = test system: UO-31 renal
SN12C renal = test system: SN12C renal
OVCAR-8 ovarian = test system: OVCAR-8 ovarian
ACHN renal = test system: ACHN renal
MOLT-4 leukemia = test system: MOLT-4 leukemia
SK-OV-3 ovarian = test system: SK-OV-3 ovarian
LOX IMVI melanoma = test system: LOX IMVI melanoma
RXF 393 renal = test system: RXF 393 renal
NCI-H23 lung = test system: NCI-H23 lung
SK-MEL-28 melanoma = test system: SK-MEL-28 melanoma

SMILES | GI50 (UO-31 renal) | TGI (UO-31 renal) | GI50 (SN12C renal) | TGI (SN12C renal) | GI50 (OVCAR-8 ovarian) | TGI (OVCAR-8 ovarian) | GI50 (ACHN renal) | TGI (ACHN renal) | GI50 (MOLT-4 leukemia) | TGI (MOLT-4 leukemia) | GI50 (SK-OV-3 ovarian) | TGI (SK-OV-3 ovarian) | GI50 (LOX IMVI melanoma) | TGI (LOX IMVI melanoma) | GI50 (RXF 393 renal) | TGI (RXF 393 renal) | GI50 (NCI-H23 lung) | TGI (NCI-H23 lung) | GI50 (SK-MEL-28 melanoma) | TGI (SK-MEL-28 melanoma)
OCC1OC(OC2(CO)OC(CO)C(O)C2O)C(O)C(O)C1O (configuration not stated) | > 100 µM | > 100 µM | > 100 µM | > 100 µM | > 100 µM | > 100 µM | > 100 µM | > 100 µM | > 100 µM | > 100 µM | > 100 µM | > 100 µM | > 100 µM | > 100 µM | > 100 µM | > 100 µM | > 100 µM | > 100 µM | > 100 µM | > 100 µM
Nc1ncnc2c1c(-c1ccc(Oc3ccccc3)cc1)nn2CC1SSCC1O (configuration not stated) | 1.22 µM | 5.88 µM | 4.97 µM | 15.2 µM | 7.51 µM | 23.3 µM | 4.27 µM | 14.9 µM | 0.124 µM | 0.621 µM | 1.35 µM | 7.05 µM | 0.335 µM | 4.96 µM | 2.74 µM | 9.62 µM | 1.7 µM | 7.97 µM | 0.131 µM | 0.92 µM
Cc1ccc(-n2nc(C(OC3OC(CO)C(O)C(O)C3O)C(O)CO)c3nc4cc(C)c(C)cc4nc32)cc1 (configuration not stated) |  | > 100 µM |  | > 100 µM |  | > 100 µM |  | > 100 µM |  | > 100 µM |  | > 100 µM |  | > 100 µM |  | > 100 µM |  | > 100 µM |  | > 100 µM
O=C(CCCCN1CCN(CCCCC(=O)Nc2ccccc2C#C/C=C\C#Cc2ccccc2C(F)(F)F)CC1)Nc1ccccc1C#C/C=C\C#Cc1ccccc1C(F)(F)F | 11.8 µM | 48 µM | 17.6 µM | > 50 µM | 12.2 µM | 28.5 µM | 20.9 µM | > 50 µM | 8.55 µM | 27 µM | 18.7 µM | > 50 µM | 10.1 µM | 20.2 µM | 9.81 µM | 23.5 µM | 13.8 µM | 38.9 µM | 9.76 µM | 18.4 µM
CCCCCCCCCCCCCC(=O)O[C@H]1CC[C@H](NC(=O)[C@H](OC)[C@H](O)[C@@H](O)[C@H](O)/C=C/C(C)C)C(=O)N(C)C1 | 0.0283 µM | 15 µM and 8.93 µM | 0.00238 µM | 15 µM and 4.84 µM | 0.00238 µM | 15 µM and 3.59 µM | 0.0306 µM | 15 µM and > 23.8 µM | 0.00238 µM | 15 µM and 5.24 µM | 0.0194 µM | 15 µM and > 23.8 µM |  | 15 µM and 3.34 µM | 0.00238 µM |  | 0.00328 µM | 0.15 µM and 0.056 µM | 0.00238 µM | 15 µM and 3.57 µM
O=C(Nc1nc(=S)[nH][nH]1)C(=O)C(c1cnc2ccc([N+](=O)[O-])cc2n1)[N+](=O)[O-] (configuration not stated) |  | > 100 µM |  | > 100 µM |  | > 100 µM |  | > 100 µM |  | > 100 µM |  | > 100 µM |  | > 100 µM |  | > 100 µM |  | > 100 µM |  | > 100 µM
CC1CCCP(=O)(c2ccccc2)CCC1 (configuration not stated) |  | > 100 µM |  | > 100 µM |  | > 100 µM |  | > 100 µM |  | > 100 µM |  | > 100 µM |  | > 100 µM |  | > 100 µM |  | > 100 µM |  | > 100 µM
CCc1ccc(Oc2c(-c3ccc(OCc4ccc(Cl)cc4)cc3O)nn(C)c2C(F)(F)F)cc1 | 0.432 µM | 1.63 µM | 1.04 µM | 2.48 µM | 1.35 µM | 3.79 µM | 0.385 µM | 1.7 µM | 0.565 µM | 2.93 µM | 1.63 µM | 4.98 µM | 0.416 µM | 1.51 µM | 1.14 µM | 2.59 µM | 0.376 µM | 1.74 µM | 1.26 µM | 2.91 µM
COC(=O)C1CCC(C)CC1=O (configuration not stated) |  | > 100 µM |  | > 100 µM |  | > 100 µM |  | > 100 µM |  | > 100 µM |  | > 100 µM |  | > 100 µM |  | > 100 µM |  | > 100 µM |  | > 100 µM
COc1ccccc1/C=C(\NC(=O)c1ccccc1)c1nc2ccc(Cl)cc2[nH]1 |  | 46.6 µM |  | > 100 µM |  | 73 µM |  | 67.8 µM |  | 54.9 µM |  | 84 µM |  | > 100 µM |  | > 100 µM |  | 69.3 µM |  | > 100 µM
COc1ccc(N(CC(=O)O)N=O)cc1 |  | > 100 µM |  | > 100 µM |  | > 100 µM |  | > 100 µM |  | > 100 µM |  | > 100 µM |  | > 100 µM |  | > 100 µM |  | > 100 µM |  | > 100 µM
C/C(CCN(C)C)=N/O |  | 31.5 µM |  | 27.3 µM |  | 22.8 µM |  | 22.3 µM |  | 4.82 µM |  | 54.1 µM |  | 16.3 µM |  | 15.7 µM |  | 25.5 µM |  | 14.8 µM
CO[C@H]1C(=O)[C@]2(C)[C@@H](OC)C[C@H]3OC[C@@]3(OC(C)=O)[C@H]2[C@H](OC(=O)c2ccccc2)[C@]2(O)C[C@H](OC(=O)[C@H](O)[C@@H](NC(=O)OC(C)(C)C)c3ccccc3)C(C)=C1C2(C)C | < 0.01 µM | 54.3 µM | < 0.01 µM | > 100 µM | < 0.01 µM | > 100 µM | 12.6 µM | > 100 µM | < 0.0114 µM | 27.8 µM | < 0.01 µM | 35.2 µM | < 0.01 µM | 49.7 µM | < 0.01 µM | 10.7 µM | < 0.01 µM | > 100 µM |  | 39.8 µM
O=C1C=CC2(CCC23C=CC(=O)O3)O1 (configuration not stated) |  | > 100 µM |  | > 100 µM |  | > 100 µM |  | > 100 µM |  | > 100 µM |  | > 100 µM |  | > 100 µM |  | > 100 µM |  | > 100 µM |  | > 100 µM
Cc1cc(NC(=O)NC(=O)c2ccccc2NC(=O)CN(C)C)ccc1Oc1ncc(Br)cn1 |  | > 100 µM |  | > 100 µM |  | > 100 µM |  | > 100 µM |  | 59.8 µM |  | > 91.5 µM |  | > 100 µM |  | 22.8 µM |  | 65.9 µM |  | > 56.2 µM
CN(C)C1C(=O)C(C(N)=O)=C(O)C2(O)C(=O)C3=C(O)c4c(O)cccc4C(C)(O)C3CC12.[Cl][Sb]([Cl])[Cl] (configuration not stated) | 2.62 µM | 16.1 µM | 3.91 µM | 14.9 µM | 3.37 µM | 13.1 µM | 4.75 µM | 18.7 µM | 3.91 µM | 11 µM | 3.79 µM | 14 µM | 2.63 µM | 12.3 µM | 3.03 µM | 10.7 µM | 3.3 µM | 12.2 µM | 2.81 µM | 8.57 µM
